Reference: US20100075950A1, “PHENY[…] DOPAMINE RECEPTOR” (AUSPEX PHARMACEUTICALS, INC., priority 2008, published 2010)

Test: In vitro liver microsomal stability assay
Assay type: in vitro ADME
Conditions: 1 mg per mL liver microsome protein, NADPH-generating system, 5 microgram per mL test compound, about 37° C., 0-60 minutes, LC/MS/MS
Method: Liver microsomal stability assays were conducted at 1 mg per mL liver microsome protein with an NADPH-generating system in 2% NaHCO3 (2.2 mM NADPH, 25.6 mM glucose 6-phosphate, 6 units per mL glucose 6-phosphate dehydrogenase and 3.3 mM MgCl2). Test compounds were prepared as solutions in 20% acetonitrile-water and added to the assay mixture (final assay concentration 5 microgram per mL) and incubated at about 37° C. Final concentration of acetonitrile in the assay should be <1%. Aliquots (50 μL) were taken out at times 0, 15, 30, 45, and 60 minutes, and diluted with ice cold acetonitrile (200 μL) to stop the reactions. Samples were centrifuged at 12,000 RPM for about 10 minutes to precipitate proteins. Supernatants were transferred to microcentrifuge tubes and stored for LC/MS/MS analysis of the degradation half-life of the test compounds.

**Q.** Which “degradation half-life as compared to the non-isotopically enriched compound” value does the source give for `Cl.[2H]C([2H])([2H])C(NC(C)C(=O)c1cccc(Cl)c1)(C([2H])([2H])[2H])C([2H])([2H])[2H]` (stereo not shown) [Example 2, 2-(tent-d9-Butylamino)-1-(3-chlorophenyl)propan-1-one Hydrochloride] here?
**A.** improved degradation half-life
